# According to the NIST ThermoML archive (doi:10.1016/j.fluid.2014.02.004):
# Numbers after ± are expanded uncertainties.
# Assay: osmotic coefficient (dimensionless); mn = molality of the nth substance listed, in mol/kg
# Conditions: 298.15 K, 101 kPa, Liquid, isopiestic method
smiles,measurement,setting,value
NCCC(=O)O [3-aminopropanoic acid] + O,osmotic coefficient,m1 = 0.1408,0.9912 ± 0.0004
same,osmotic coefficient,m1 = 0.2482,0.9892 ± 0.0005
same,osmotic coefficient,m1 = 0.335,0.988 ± 0.0006
same,osmotic coefficient,m1 = 0.452,0.9882 ± 0.0006
same,osmotic coefficient,m1 = 0.6148,0.9901 ± 0.0005
same,osmotic coefficient,m1 = 0.6813,0.9905 ± 0.0005
same,osmotic coefficient,m1 = 0.9542,0.9934 ± 0.0003
same,osmotic coefficient,m1 = 1.43,1.0056 ± 0.0003
NCCCC(=O)O [4-aminobutanoic acid] + O,osmotic coefficient,m1 = 0.1412,0.9884 ± 0.0006
same,osmotic coefficient,m1 = 0.249,0.986 ± 0.0007
same,osmotic coefficient,m1 = 0.3355,0.9866 ± 0.0007
same,osmotic coefficient,m1 = 0.453,0.986 ± 0.0007
same,osmotic coefficient,m1 = 0.6155,0.9889 ± 0.0006
same,osmotic coefficient,m1 = 0.6809,0.991 ± 0.0005
same,osmotic coefficient,m1 = 0.944,1.0041 ± 0.0002
same,osmotic coefficient,m1 = 1.402,1.026 ± 0.0013
NCCCCC(=O)O [5-aminovaleric acid] + O,osmotic coefficient,m1 = 0.1414,0.987 ± 0.0007
same,osmotic coefficient,m1 = 0.2493,0.9848 ± 0.0008
same,osmotic coefficient,m1 = 0.3362,0.9845 ± 0.0008
same,osmotic coefficient,m1 = 0.4531,0.9858 ± 0.0007
same,osmotic coefficient,m1 = 0.618,0.9849 ± 0.0008
same,osmotic coefficient,m1 = 0.6834,0.9874 ± 0.0006
same,osmotic coefficient,m1 = 0.9461,1.0019 ± 0.0001
same,osmotic coefficient,m1 = 1.397,1.029 ± 0.0015
NCCCCCC(=O)O [6-aminohexanoic acid] + O,osmotic coefficient,m1 = 0.1411,0.9889 ± 0.0006
same,osmotic coefficient,m1 = 0.2493,0.9848 ± 0.0008
same,osmotic coefficient,m1 = 0.3366,0.9833 ± 0.0008
same,osmotic coefficient,m1 = 0.4538,0.9843 ± 0.0008
same,osmotic coefficient,m1 = 0.617,0.9865 ± 0.0007
same,osmotic coefficient,m1 = 0.6826,0.9886 ± 0.0006
same,osmotic coefficient,m1 = 0.9388,1.0097 ± 0.0005
same,osmotic coefficient,m1 = 1.388,1.036 ± 0.0018
